Laboratory results from the supplement of paper PMC10307832.

What was measured:
Assay in all cases: relative viability (nuclei count vs DMSO), 5 days (fraction); higher = more cells survive
NCI-H1734 = tested on: NCI-H1734
Method in brief: (§1)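 Lung cancer cell lines, seeded in 1536-well plates, were treated the following day by pin tool with a single drug or with five library-drug doses (not always all listed) in √10 steps on top of a fixed anchor-drug dose. Cells were fixed and nuclei stained in one step after 5 days, and nuclei were counted. Relative viability is the nuclei count for treated wells divided by that for vehicle wells, reported as medians of duplicate plates.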

LU99A = tested on: LU99A
Method in brief: as §1

NCI-H460 = tested on: NCI-H460
Method in brief: as §1

NCI-H2228 = tested on: NCI-H2228
Method in brief: as §1

PC-3 [JPC-3] = tested on: PC-3 [JPC-3]
Method in brief: as §1

LOU-NH91 = tested on: LOU-NH91
Method in brief: as §1

NCI-H3122 = tested on: NCI-H3122
Method in brief: as §1

CAL-12T = tested on: CAL-12T
Method in brief: as §1

RERF-LC-KJ = tested on: RERF-LC-KJ
Method in brief: as §1

NCI-H2405 = tested on: NCI-H2405
Method in brief: as §1

NCI-H1793 = tested on: NCI-H1793
Method in brief: as §1

LC-2-ad = tested on: LC-2-ad
Method in brief: as §1

NCI-H1755 = tested on: NCI-H1755
Method in brief: as §1

NCI-H2087 = tested on: NCI-H2087
Method in brief: as §1

NCI-H1651 = tested on: NCI-H1651
Method in brief: as §1

HCC-78 = tested on: HCC-78
Method in brief: as §1

ChaGo-K-1 = tested on: ChaGo-K-1
Method in brief: as §1

ABC-1 = tested on: ABC-1
Method in brief: as §1

NCI-H1944 = tested on: NCI-H1944
Method in brief: as §1

NCI-H1395 = tested on: NCI-H1395
Method in brief: as §1

UMC-11 = tested on: UMC-11
Method in brief: as §1

NCI-H2170 = tested on: NCI-H2170
Method in brief: as §1

HCC-366 = tested on: HCC-366
Method in brief: as §1

With `O=C(O)c1ccc(-c2c[nH]c3ncc(-c4ccccc4)cc23)cc1C1CCCC1` + Cc1nc(Nc2ncc(C(=O)Nc3c(C)cccc3Cl)s2)cc(N2CCN(CCO)CC2)n1 [Dasatinib] (partner 0.075 µM) the relative viability (NCI-H1734; first compound 0.04 µM) was 0.502, the relative viability (NCI-H1734; first compound 0.1265 µM) was 0.437 and the relative viability (NCI-H1734; first compound 0.4 µM) was 0.468. The relative viability (NCI-H1734; first compound 1.265 µM) was 0.409, the relative viability (LU99A; first compound 0.04 µM) was 0.599 and the relative viability (LU99A; first compound 0.1265 µM) was 0.748. For the same compound, the relative viability (LU99A; first compound 0.4 µM) was 0.626, the relative viability (LU99A; first compound 1.265 µM) was 0.448 and the relative viability (NCI-H460; first compound 0.04 µM) was 0.566. For the same compound, the relative viability (NCI-H460; first compound 0.1265 µM) was 0.676, the relative viability (NCI-H460; first compound 0.4 µM) was 0.472 and the relative viability (NCI-H460; first compound 1.265 µM) was 0.428. It also gave a relative viability (NCI-H2228; first compound 0.04 µM) of 0.601, a relative viability (NCI-H2228; first compound 0.1265 µM) of 0.607 and a relative viability (NCI-H2228; first compound 0.4 µM) of 0.519. It also gave a relative viability (NCI-H2228; first compound 1.265 µM) of 0.395, a relative viability (PC-3 [JPC-3]; first compound 0.04 µM) of 0.981 and a relative viability (PC-3 [JPC-3]; first compound 0.1265 µM) of 1.09. The relative viability (PC-3 [JPC-3]; first compound 0.4 µM) was 1.07, the relative viability (PC-3 [JPC-3]; first compound 1.265 µM) was 0.973 and the relative viability (LOU-NH91; first compound 0.04 µM) was 0.573. For the same compound, the relative viability (LOU-NH91; first compound 0.1265 µM) was 0.667, the relative viability (LOU-NH91; first compound 0.4 µM) was 0.508 and the relative viability (LOU-NH91; first compound 1.265 µM) was 0.577. For the same compound, the relative viability (NCI-H3122; first compound 0.04 µM) was 0.927, the relative viability (NCI-H3122; first compound 0.1265 µM) was 0.858 and the relative viability (NCI-H3122; first compound 0.4 µM) was 0.766. For the same compound, the relative viability (NCI-H3122; first compound 1.265 µM) was 0.812, the relative viability (CAL-12T; first compound 0.04 µM) was 0.484 and the relative viability (CAL-12T; first compound 0.1265 µM) was 0.602. The relative viability (CAL-12T; first compound 0.4 µM) was 0.481, the relative viability (CAL-12T; first compound 1.265 µM) was 0.323 and the relative viability (RERF-LC-KJ; first compound 0.04 µM) was 0.758. For the same compound, the relative viability (RERF-LC-KJ; first compound 0.1265 µM) was 0.778, the relative viability (RERF-LC-KJ; first compound 0.4 µM) was 0.783 and the relative viability (RERF-LC-KJ; first compound 1.265 µM) was 0.687. The relative viability (NCI-H2405; first compound 0.04 µM) was 0.207, the relative viability (NCI-H2405; first compound 0.1265 µM) was 0.253 and the relative viability (NCI-H2405; first compound 0.4 µM) was 0.191. It also gave a relative viability (NCI-H2405; first compound 1.265 µM) of 0.191, a relative viability (NCI-H1793; first compound 0.04 µM) of 0.376 and a relative viability (NCI-H1793; first compound 0.1265 µM) of 0.473. For the same compound, the relative viability (NCI-H1793; first compound 0.4 µM) was 0.373, the relative viability (NCI-H1793; first compound 1.265 µM) was 0.342 and the relative viability (LC-2-ad; first compound 0.04 µM) was 0.505. The relative viability (LC-2-ad; first compound 0.1265 µM) was 0.813, the relative viability (LC-2-ad; first compound 0.4 µM) was 0.489 and the relative viability (LC-2-ad; first compound 1.265 µM) was 0.463. For the same compound, the relative viability (NCI-H1755; first compound 0.04 µM) was 0.394, the relative viability (NCI-H1755; first compound 0.1265 µM) was 0.541 and the relative viability (NCI-H1755; first compound 0.4 µM) was 0.423. It also gave a relative viability (NCI-H1755; first compound 1.265 µM) of 0.436, a relative viability (NCI-H2087; first compound 0.04 µM) of 0.752 and a relative viability (NCI-H2087; first compound 0.1265 µM) of 0.778. For the same compound, the relative viability (NCI-H2087; first compound 0.4 µM) was 0.896, the relative viability (NCI-H2087; first compound 1.265 µM) was 0.661 and the relative viability (NCI-H1651; first compound 0.04 µM) was 0.333. The relative viability (NCI-H1651; first compound 0.1265 µM) was 0.5, the relative viability (NCI-H1651; first compound 0.4 µM) was 0.384 and the relative viability (NCI-H1651; first compound 1.265 µM) was 0.3. The relative viability (HCC-78; first compound 0.1265 µM) was 0.516, the relative viability (HCC-78; first compound 0.4 µM) was 0.485 and the relative viability (HCC-78; first compound 1.265 µM) was 0.406. It also gave a relative viability (ChaGo-K-1; first compound 0.04 µM) of 0.602, a relative viability (ChaGo-K-1; first compound 0.1265 µM) of 0.632 and a relative viability (ChaGo-K-1; first compound 0.4 µM) of 0.518. The relative viability (ChaGo-K-1; first compound 1.265 µM) was 0.604, the relative viability (ABC-1; first compound 0.04 µM) was 0.588 and the relative viability (ABC-1; first compound 0.1265 µM) was 0.629. It also gave a relative viability (ABC-1; first compound 0.4 µM) of 0.551, a relative viability (ABC-1; first compound 1.265 µM) of 0.604 and a relative viability (NCI-H1944; first compound 0.04 µM) of 0.227. It also gave a relative viability (NCI-H1944; first compound 0.1265 µM) of 0.254, a relative viability (NCI-H1944; first compound 0.4 µM) of 0.216 and a relative viability (NCI-H1944; first compound 1.265 µM) of 0.193. For the same compound, the relative viability (NCI-H1395; first compound 0.04 µM) was 0.392, the relative viability (NCI-H1395; first compound 0.1265 µM) was 0.396 and the relative viability (NCI-H1395; first compound 0.4 µM) was 0.365. The relative viability (NCI-H1395; first compound 1.265 µM) was 0.426, the relative viability (UMC-11; first compound 0.04 µM) was 0.505 and the relative viability (UMC-11; first compound 0.1265 µM) was 0.496. The relative viability (UMC-11; first compound 0.4 µM) was 0.501, the relative viability (UMC-11; first compound 1.265 µM) was 0.433 and the relative viability (NCI-H2170; first compound 0.04 µM) was 0.522. It also gave a relative viability (NCI-H2170; first compound 0.1265 µM) of 0.623, a relative viability (NCI-H2170; first compound 0.4 µM) of 0.529 and a relative viability (NCI-H2170; first compound 1.265 µM) of 0.564. The relative viability (HCC-366; first compound 0.04 µM) was 0.583, the relative viability (HCC-366; first compound 0.1265 µM) was 0.786 and the relative viability (HCC-366; first compound 0.4 µM) was 0.689. It also gave a relative viability (HCC-366; first compound 1.265 µM) of 0.669.
